Measurements reported in the supplement of paper PMC10307832.

Assays:
Test in all cases: relative viability (nuclei count vs DMSO), 5 days (fraction); higher = more cells survive
[1] = tested on: HCC-366
How it was run: (§1)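 Lung cancer cell lines were seeded in 1536-well plates and dosed by pin tool the next day, with either a single drug or a fixed anchor-drug dose combined with five library-drug doses (not always all listed) spaced in √10 steps. Five days later, one step fixed the cells and stained their nuclei (final 0.05% Triton X-100, 1% formaldehyde, 1 ug/ml Hoechst), and nuclei were counted on 4× images. Relative viability is the nuclei count in treated wells divided by the count in vehicle wells, and each value is the median of duplicate plates.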

[2] = tested on: NCI-H2023
How it was run: as §1

[3] = tested on: NCI-H460
How it was run: as §1

[4] = tested on: NCI-H2342
How it was run: as §1

[5] = tested on: LOU-NH91
How it was run: as §1

[6] = tested on: CAL-12T
How it was run: as §1

[7] = tested on: LU99A
How it was run: as §1

[8] = tested on: NCI-H1734
How it was run: as §1

[9] = tested on: SK-LU-1
How it was run: as §1

[10] = tested on: NCI-H441
How it was run: as §1

[11] = tested on: NCI-H838
How it was run: as §1

[12] = tested on: BEN
How it was run: as §1

[13] = tested on: NCI-H1975
How it was run: as §1

[14] = tested on: NCI-H1355
How it was run: as §1

[15] = tested on: NCI-H358
How it was run: as §1

[16] = tested on: NCI-H2085
How it was run: as §1

[17] = tested on: NCI-H1651
How it was run: as §1

[18] = tested on: NCI-H1437
How it was run: as §1

[19] = tested on: COR-L23
How it was run: as §1

[20] = tested on: NCI-H1563
How it was run: as §1

[21] = tested on: NCI-H1650
How it was run: as §1

[22] = tested on: NCI-H1793
How it was run: as §1

Molecule `CC(=O)O[C@@]12CO[C@@H]1C[C@H](O)[C@@]1(C)C(=O)[C@H](O)C3=C(C)[C@@H](OC(=O)[C@H](O)[C@@H](NC(=O)OC(C)(C)C)c4ccccc4)C[C@@](O)([C@@H](OC(=O)c4ccccc4)[C@H]21)C3(C)C` [Docetaxel] + Cc1nc(Nc2ncc(C(=O)Nc3c(C)cccc3Cl)s2)cc(N2CCN(CCO)CC2)n1 [Dasatinib] (partner 0.075 µM) has a relative viability ([1]; first compound 0.0002 µM) of 0.569, a relative viability ([1]; first compound 0.000632 µM) of 0.255 and a relative viability ([1]; first compound 0.002 µM) of 0.119. For the same molecule, the relative viability ([1]; first compound 0.006325 µM) was 0.0384, the relative viability ([1]; first compound 0.02 µM) was 0.0228 and the relative viability ([2]; first compound 0.0002 µM) was 0.467. For the same molecule, the relative viability ([2]; first compound 0.000632 µM) was 0.339, the relative viability ([2]; first compound 0.002 µM) was 0.134 and the relative viability ([2]; first compound 0.006325 µM) was 0.123. The relative viability ([2]; first compound 0.02 µM) was 0.0567, the relative viability ([3]; first compound 0.0002 µM) was 0.457 and the relative viability ([3]; first compound 0.000632 µM) was 0.44. The relative viability ([3]; first compound 0.002 µM) was 0.089, the relative viability ([3]; first compound 0.006325 µM) was 0.0266 and the relative viability ([3]; first compound 0.02 µM) was 0.0131. For the same molecule, the relative viability ([4]; first compound 0.0002 µM) was 0.309, the relative viability ([4]; first compound 0.000632 µM) was 0.326 and the relative viability ([4]; first compound 0.002 µM) was 0.308. The relative viability ([4]; first compound 0.006325 µM) was 0.285, the relative viability ([4]; first compound 0.02 µM) was 0.265 and the relative viability ([5]; first compound 0.0002 µM) was 0.553. It also gave a relative viability ([5]; first compound 0.000632 µM) of 0.533, a relative viability ([5]; first compound 0.002 µM) of 0.345 and a relative viability ([5]; first compound 0.006325 µM) of 0.304. For the same molecule, the relative viability ([5]; first compound 0.02 µM) was 0.247, the relative viability ([6]; first compound 0.0002 µM) was 0.412 and the relative viability ([6]; first compound 0.000632 µM) was 0.192. The relative viability ([6]; first compound 0.002 µM) was 0.137, the relative viability ([6]; first compound 0.006325 µM) was 0.0909 and the relative viability ([6]; first compound 0.02 µM) was 0.0651. The relative viability ([7]; first compound 0.0002 µM) was 0.588, the relative viability ([7]; first compound 0.000632 µM) was 0.372 and the relative viability ([7]; first compound 0.002 µM) was 0.285. The relative viability ([7]; first compound 0.006325 µM) was 0.277, the relative viability ([8]; first compound 0.0002 µM) was 0.46 and the relative viability ([8]; first compound 0.000632 µM) was 0.286. The relative viability ([8]; first compound 0.002 µM) was 0.234, the relative viability ([8]; first compound 0.006325 µM) was 0.239 and the relative viability ([8]; first compound 0.02 µM) was 0.163. It also gave a relative viability ([9]; first compound 0.0002 µM) of 0.175, a relative viability ([9]; first compound 0.000632 µM) of 0.156 and a relative viability ([9]; first compound 0.006325 µM) of 0.122. For the same molecule, the relative viability ([9]; first compound 0.02 µM) was 0.132, the relative viability ([10]; first compound 0.0002 µM) was 0.621 and the relative viability ([10]; first compound 0.000632 µM) was 0.499. The relative viability ([10]; first compound 0.002 µM) was 0.235, the relative viability ([10]; first compound 0.006325 µM) was 0.224 and the relative viability ([10]; first compound 0.02 µM) was 0.148. The relative viability ([11]; first compound 0.0002 µM) was 0.318, the relative viability ([11]; first compound 0.000632 µM) was 0.3 and the relative viability ([11]; first compound 0.002 µM) was 0.265. For the same molecule, the relative viability ([11]; first compound 0.006325 µM) was 0.247, the relative viability ([11]; first compound 0.02 µM) was 0.175 and the relative viability ([12]; first compound 0.0002 µM) was 0.281. It also gave a relative viability ([12]; first compound 0.000632 µM) of 0.355, a relative viability ([12]; first compound 0.002 µM) of 0.328 and a relative viability ([12]; first compound 0.006325 µM) of 0.183. It also gave a relative viability ([12]; first compound 0.02 µM) of 0.154, a relative viability ([13]; first compound 0.0002 µM) of 0.377 and a relative viability ([13]; first compound 0.000632 µM) of 0.284. The relative viability ([13]; first compound 0.002 µM) was 0.152, the relative viability ([13]; first compound 0.006325 µM) was 0.127 and the relative viability ([13]; first compound 0.02 µM) was 0.107. The relative viability ([14]; first compound 0.0002 µM) was 0.726, the relative viability ([14]; first compound 0.000632 µM) was 0.665 and the relative viability ([14]; first compound 0.002 µM) was 0.472. For the same molecule, the relative viability ([14]; first compound 0.006325 µM) was 0.314, the relative viability ([14]; first compound 0.02 µM) was 0.203 and the relative viability ([15]; first compound 0.0002 µM) was 0.159. The relative viability ([15]; first compound 0.000632 µM) was 0.179, the relative viability ([15]; first compound 0.006325 µM) was 0.111 and the relative viability ([15]; first compound 0.02 µM) was 0.0699. It also gave a relative viability ([16]; first compound 0.0002 µM) of 0.229, a relative viability ([16]; first compound 0.000632 µM) of 0.268 and a relative viability ([16]; first compound 0.002 µM) of 0.217. For the same molecule, the relative viability ([16]; first compound 0.006325 µM) was 0.24, the relative viability ([16]; first compound 0.02 µM) was 0.176 and the relative viability ([17]; first compound 0.0002 µM) was 0.338. The relative viability ([17]; first compound 0.000632 µM) was 0.236, the relative viability ([17]; first compound 0.002 µM) was 0.119 and the relative viability ([17]; first compound 0.006325 µM) was 0.0789. The relative viability ([17]; first compound 0.02 µM) was 0.0711, the relative viability ([18]; first compound 0.0002 µM) was 0.339 and the relative viability ([18]; first compound 0.000632 µM) was 0.259. The relative viability ([18]; first compound 0.002 µM) was 0.268, the relative viability ([18]; first compound 0.006325 µM) was 0.174 and the relative viability ([18]; first compound 0.02 µM) was 0.122. For the same molecule, the relative viability ([19]; first compound 0.0002 µM) was 0.458, the relative viability ([19]; first compound 0.000632 µM) was 0.406 and the relative viability ([19]; first compound 0.002 µM) was 0.226. It also gave a relative viability ([19]; first compound 0.006325 µM) of 0.112, a relative viability ([19]; first compound 0.02 µM) of 0.0725 and a relative viability ([20]; first compound 0.0002 µM) of 0.433. The relative viability ([20]; first compound 0.000632 µM) was 0.454, the relative viability ([20]; first compound 0.002 µM) was 0.423 and the relative viability ([20]; first compound 0.006325 µM) was 0.406. The relative viability ([20]; first compound 0.02 µM) was 0.339, the relative viability ([21]; first compound 0.0002 µM) was 0.263 and the relative viability ([21]; first compound 0.000632 µM) was 0.245. The relative viability ([21]; first compound 0.02 µM) was 0.104, the relative viability ([22]; first compound 0.0002 µM) was 0.351 and the relative viability ([22]; first compound 0.000632 µM) was 0.345. The relative viability ([22]; first compound 0.002 µM) was 0.279, the relative viability ([22]; first compound 0.006325 µM) was 0.175 and the relative viability ([22]; first compound 0.02 µM) was 0.16.
